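The compound was tested at five concentrations on cells cultured in 96-well plates, with a 48-hour exposure period. GI50: concentration for 50% inhibition of growth. TGI: total growth inhibition.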
Legend:
Experiment in all cases: NCI-60 cell line screen, 48 h; in the data active = GI50 below about 0.43 µM; inactive = the rest
MDA-MB-231 breast = system: MDA-MB-231 breast
U251 CNS = system: U251 CNS
MCF7 breast = system: MCF7 breast
DU-145 prostate = system: DU-145 prostate
SR leukemia = system: SR leukemia
SNB-75 CNS = system: SNB-75 CNS
SF-539 CNS = system: SF-539 CNS
UACC-62 melanoma = system: UACC-62 melanoma
NCI-H522 lung = system: NCI-H522 lung
MALME-3M melanoma = system: MALME-3M melanoma
HT29 colon = system: HT29 colon
OVCAR-5 ovarian = system: OVCAR-5 ovarian
NCI-H460 lung = system: NCI-H460 lung
UACC-257 melanoma = system: UACC-257 melanoma
HCC-2998 colon = system: HCC-2998 colon
RXF 393 renal = system: RXF 393 renal
RPMI-8226 leukemia = system: RPMI-8226 leukemia
HCT-15 colon = system: HCT-15 colon
SF-295 CNS = system: SF-295 CNS
HS 578T breast = system: HS 578T breast
CAKI-1 renal = system: CAKI-1 renal
KM12 colon = system: KM12 colon
HOP-62 NSCLC = system: HOP-62 NSCLC
HL-60(TB) leukemia = system: HL-60(TB) leukemia
IGROV1 ovarian = system: IGROV1 ovarian
EKVX NSCLC = system: EKVX NSCLC
T-47D breast = system: T-47D breast
HCT-116 colon = system: HCT-116 colon
LOX IMVI melanoma = system: LOX IMVI melanoma
SK-OV-3 ovarian = system: SK-OV-3 ovarian
ACHN renal = system: ACHN renal
M14 melanoma = system: M14 melanoma
A498 renal = system: A498 renal
SNB-19 CNS = system: SNB-19 CNS
MOLT-4 leukemia = system: MOLT-4 leukemia
786-0 renal = system: 786-0 renal
COLO 205 colon = system: COLO 205 colon
HOP-92 NSCLC = system: HOP-92 NSCLC
SF-268 CNS = system: SF-268 CNS
BT-549 breast = system: BT-549 breast
K-562 leukemia = system: K-562 leukemia
TK-10 renal = system: TK-10 renal
MDA-MB-435 = system: MDA-MB-435
CCRF-CEM leukemia = system: CCRF-CEM leukemia
A549 NSCLC = system: A549 NSCLC
PC-3 prostate = system: PC-3 prostate
SK-MEL-2 melanoma = system: SK-MEL-2 melanoma
SK-MEL-5 melanoma = system: SK-MEL-5 melanoma

Nc1nc(-c2cccc([N+](=O)[O-])c2)c(N=Nc2ccccc2[N+](=O)[O-])s1
5.95 µM: TGI (TK-10 renal)
61.3 µM: TGI (M14 melanoma)
6.33 µM: TGI (HOP-62 NSCLC)
31.1 µM: TGI (SK-MEL-5 melanoma)
5.84 µM: TGI (IGROV1 ovarian)
active: GI50 (HOP-92 NSCLC) 285 nM
5.73 µM: TGI (HCT-116 colon)
8.6 µM: TGI (MALME-3M melanoma)
38.7 µM: TGI (SK-MEL-2 melanoma)
30.5 µM: TGI (A498 renal)
14.4 µM: TGI (NCI-H522 lung) | TGI (SNB-19 CNS)
32.7 µM: TGI (BT-549 breast)
> 100 µM: TGI (MCF7 breast) | TGI (DU-145 prostate) | TGI (SR leukemia) | TGI (UACC-62 melanoma) | TGI (HT29 colon) | TGI (OVCAR-5 ovarian) | TGI (NCI-H460 lung) | TGI (UACC-257 melanoma) | TGI (HCC-2998 colon) | TGI (RPMI-8226 leukemia) | TGI (HCT-15 colon) | TGI (KM12 colon) | TGI (HL-60(TB) leukemia) | TGI (EKVX NSCLC) | TGI (T-47D breast) | TGI (MOLT-4 leukemia) | TGI (COLO 205 colon) | TGI (SF-268 CNS) | TGI (K-562 leukemia) | TGI (MDA-MB-435) | TGI (CCRF-CEM leukemia) | TGI (A549 NSCLC) | TGI (PC-3 prostate)
6 µM: TGI (LOX IMVI melanoma)
14.1 µM: TGI (SF-295 CNS)
2750 nM: TGI (ACHN renal)
inactive: GI50 (MDA-MB-231 breast) 1460 nM | GI50 (U251 CNS) 1690 nM | GI50 (MCF7 breast) 18.8 µM | GI50 (DU-145 prostate) 4.79 µM | GI50 (SR leukemia) 22.7 µM | GI50 (SNB-75 CNS) 1440 nM | GI50 (SF-539 CNS) 1470 nM | GI50 (UACC-62 melanoma) 2110 nM | GI50 (NCI-H522 lung) 1940 nM | GI50 (MALME-3M melanoma) 2900 nM | GI50 (HT29 colon) 59 µM | GI50 (OVCAR-5 ovarian) 8.34 µM | GI50 (NCI-H460 lung) 2250 nM | GI50 (UACC-257 melanoma) 63.4 µM | GI50 (HCC-2998 colon) 53.5 µM | GI50 (RXF 393 renal) 1640 nM | GI50 (RPMI-8226 leukemia) 4.18 µM | GI50 (HCT-15 colon) 2350 nM | GI50 (SF-295 CNS) 2800 nM | GI50 (HS 578T breast) 2550 nM | GI50 (CAKI-1 renal) 1430 nM | GI50 (KM12 colon) 5.39 µM | GI50 (HOP-62 NSCLC) 2040 nM | GI50 (HL-60(TB) leukemia) 48.7 µM | GI50 (IGROV1 ovarian) 2320 nM | GI50 (EKVX NSCLC) 6.05 µM | GI50 (T-47D breast) 4.04 µM | GI50 (HCT-116 colon) 1510 nM | GI50 (LOX IMVI melanoma) 1830 nM | GI50 (SK-OV-3 ovarian) 2130 nM | GI50 (ACHN renal) 1270 nM | GI50 (M14 melanoma) 4.84 µM | GI50 (A498 renal) 7.62 µM | GI50 (SNB-19 CNS) 3.01 µM | GI50 (MOLT-4 leukemia) 8.73 µM | GI50 (786-0 renal) 1540 nM | GI50 (COLO 205 colon) 42.8 µM | GI50 (SF-268 CNS) 3.62 µM | GI50 (BT-549 breast) 4.66 µM | GI50 (K-562 leukemia) 5.57 µM | GI50 (TK-10 renal) 2910 nM | GI50 (MDA-MB-435) 865 nM | GI50 (CCRF-CEM leukemia) 3.42 µM | GI50 (A549 NSCLC) 20.7 µM | GI50 (PC-3 prostate) 3.43 µM | GI50 (SK-MEL-2 melanoma) 14.8 µM | GI50 (SK-MEL-5 melanoma) 3.41 µM
3.2 µM: TGI (RXF 393 renal)
3.61 µM: TGI (SNB-75 CNS)
3.29 µM: TGI (U251 CNS)
9.04 µM: TGI (HS 578T breast)
3.01 µM: TGI (786-0 renal)
3.26 µM: TGI (MDA-MB-231 breast)
2890 nM: TGI (SF-539 CNS)
5.2 µM: TGI (SK-OV-3 ovarian)
2980 nM: TGI (CAKI-1 renal)
3.63 µM: TGI (HOP-92 NSCLC)

From PubChem BioAssay (NCI)
